From patent US7973056B2, “Triazole derivative or salt thereof” (Fujifilm Finechemicals Co., Ltd, priority 2008, dated 2011)
≈ marks a conversion by molar mass, not a printed value.

Tests used:
[1] = system: Candida albicans TIMM 1623; assay: Antifungal activity test (in vivo), mouse systemic infection model; parameters: survival rate: unit not given here; conditions: for T/C (%): survival time of administration group / control group x100
Experimental: With respect to compounds I-1, I-3 and I-6 obtained in Examples 1, 3 and 6 respectively, therapeutic effects at the time of subcutaneous administration of compounds I-1, I-3 and I-6 on a mouse systemic infection model by Candida albicans TIMM 1623 were tested.
The test was carried out using 5 animals for each of the drug administration groups and Negative control group (sterile physiological saline administration group).
Each of compounds I-1, I-3 and I-6 was dissolved in and diluted with dimethyl sulfoxide (DMSO; Wako Pure Chemical Industries, Ltd.) and then prepared into a predetermined concentration by diluting with sterile physiological saline.
As the control experiment, Fluconazole (FLCZ, Flanos intravenous drip solution 100 mg; TOYAMA CHEMICAL CO, LTD.) diluted to a predetermined concentration with sterile physiological saline was used.
On the next day of the receipt of animals, body weights of mice were measured and CP (crude protein) was intraperitoneally administered at a dose of 200 mg/kg based on the individual body weight, and then they were reared for 3 days.
Cells of C. albicans TIMM 1623 cultured overnight at 35° C. on SDA (Sabouraud dextrose agar; Eiken Chemical Co., Ltd.) plate medium were suspended in sterile physiological saline and used as the Stock solution, and a portion thereof was diluted with 10% formalin (Wako Pure Chemical Industries, Ltd.). The number of cells in the diluted liquid was counted under a biological microscope using a hemocytometer, and then an inoculum was prepared by diluting the stock solution with sterile physiological saline (about 1.5×10^5 cells/ml). By inoculating 0.2 ml of this cell suspension through caudal vein, infection was induced. In this connection, the number of viable cells in the inoculum was verified by spreading the cell suspension optionally diluted with sterile physiological saline on an SDA plate medium and then culturing at 35° C. Each of the substances to be tested, control substance or sterile physiological saline was subcutaneously administered after 2 hours of the infection and for 3 days starting on the next day of infection once a day, a total of 4 times. After measuring individual body weight on the next day of infection, CP was again administered intraperitoneally at a dose of 100 mg/kg. The number of survived mice was observed and recorded for 14 days starting on the next day of infection.
The results were shown in Table 3 below and FIGS. 1A to 1D. In the table, the administration dose of the compounds of the present invention and the comparative compound represents a mg amount per 1 kg of a mouse weight (mg/kg).
Significant deference was tested, by 5% for both sides of the levels of significance, in accordance with the Kaplan-Meier method Logrank test (comparison of multiple groups), on the survival time distribution of each of the substances to be tested and control substance administration groups and sterile physiological saline administration group. SAS release 8.2 (SAS Institute Japan) was used in the Kaplan-Meier method Logrank test. (T/C(%)=[survival time of administration group (integrated value)/survival time of control group (integrated value)]×100)

[2] = system: Microsporum canis ATCC 36299; assay: Antifungal activity test (in vitro), MIC; type: cell-based; conditions: ATCC36299
Experimental: Minimum inhibitory concentration (MIC) of each of the compounds obtained in Examples 1 to 12 was measured for respective fungi at MOS Pharm Service, by the methods described in Antimicrobial Agents and Chemotherapy, vol. 3, pp. 40-48 (1973), Antimicrobial Agents and Chemotherapy, vol. 33, pp. 215-222 (1989) and Antimicrobial Agents and Chemotherapy, vol. 38, pp. 2362-2368 (1994). The measuring conditions are shown in the following. In this case, Voriconazol was used as a comparative compound. Microsporum canis ATCC 36299; Cultured at 30° C. for 2 days using fluid Sabouraud medium, and this was used as a cell suspension. Each of the compounds of the invention was adjusted to a concentration of 1% by weight using dimethyl sulfoxide (DMSO) and a medium similar to the respective medium used in the above-mentioned fungal culture, having a final concentration of from 0.001 to 100 μg/ml, was prepared. Each of the inoculation cell suspensions prepared by the above-mentioned methods was inoculated onto this agar plate. […] In this connection, Voriconazol was used as the comparative compound C-1.

[3] = system: Aspergillus fumigatus ATCC 1028; assay: Antifungal activity test (in vitro), MIC; type: cell-based; conditions: ATCC1028
Experimental: Minimum inhibitory concentration (MIC) of each of the compounds obtained in Examples 1 to 12 was measured for respective fungi at MOS Pharm Service, by the methods described in Antimicrobial Agents and Chemotherapy, vol. 3, pp. 40-48 (1973), Antimicrobial Agents and Chemotherapy, vol. 33, pp. 215-222 (1989) and Antimicrobial Agents and Chemotherapy, vol. 38, pp. 2362-2368 (1994). The measuring conditions are shown in the following. In this case, Voriconazol was used as a comparative compound.
Aspergillus fumigatus ATCC 1028; Cultured at 28° C. for 2 days using potato dextrose broth, and this was used as a cell suspension.
Each of the compounds of the invention was adjusted to a concentration of 1% by weight using dimethyl sulfoxide (DMSO) and a medium similar to the respective medium used in the above-mentioned fungal culture, having a final concentration of from 0.001 to 100 μg/ml, was prepared. Each of the inoculation cell suspensions prepared by the above-mentioned methods was inoculated onto this agar plate. […] In this connection, Voriconazol was used as the comparative compound C-1.

## C[C@@H](N1CC=C(c2ccc(Cl)cn2)CC1)[C@](O)(Cn1cncn1)c1ccc(F)cc1F [I-6, (2R,3R)-3-(5-chloro-3′,6′-dihydro-2,4′-bipyridin-1′(2′H)-yl)-2-(2,4-difluorophenyl)-1-(1,2,4-triazol-1-yl)butan-2-ol]
[1]; 0.1 mg/kg s.c., day 0
  survival rate: 100
[1]; 0.1 mg/kg s.c., day 1
  survival rate: 100
[1]; 0.1 mg/kg s.c., day 2
  survival rate: 100
[1]; 0.1 mg/kg s.c., day 3
  survival rate: 100
[1]; 0.1 mg/kg s.c., day 4
  survival rate: 100
[1]; 0.1 mg/kg s.c., day 5
  survival rate: 100
[1]; 0.1 mg/kg s.c., day 6
  survival rate: 100
[1]; 0.1 mg/kg s.c., day 7
  survival rate: 80
[1]; 0.1 mg/kg s.c., day 8
  survival rate: 60
[1]; 0.1 mg/kg s.c., day 9
  survival rate: 60
[1]; 0.1 mg/kg s.c., day 10
  survival rate: 60
[1]; 0.1 mg/kg s.c., day 11
  survival rate: 60
[1]; 0.1 mg/kg s.c., day 12
  survival rate: 60
[1]; 0.1 mg/kg s.c., day 13
  survival rate: 60
[1]; 0.1 mg/kg s.c., day 14
  survival rate: 60
[1]; 0.1 mg/kg s.c.
  T/C (%): 194%
[1]; 1 mg/kg s.c., day 0
  survival rate: 100
[1]; 1 mg/kg s.c., day 1
  survival rate: 100
[1]; 1 mg/kg s.c., day 2
  survival rate: 100
[1]; 1 mg/kg s.c., day 3
  survival rate: 100
[1]; 1 mg/kg s.c., day 4
  survival rate: 100
[1]; 1 mg/kg s.c., day 5
  survival rate: 100
[1]; 1 mg/kg s.c., day 6
  survival rate: 100
[1]; 1 mg/kg s.c., day 7
  survival rate: 100
[1]; 1 mg/kg s.c., day 8
  survival rate: 100
[1]; 1 mg/kg s.c., day 9
  survival rate: 100
[1]; 1 mg/kg s.c., day 10
  survival rate: 100
[1]; 1 mg/kg s.c., day 11
  survival rate: 100
[1]; 1 mg/kg s.c., day 12
  survival rate: 100
[1]; 1 mg/kg s.c., day 13
  survival rate: 100
[1]; 1 mg/kg s.c., day 14
  survival rate: 100
[1]; 1 mg/kg s.c.
  T/C (%): 242%
[1]; 10 mg/kg s.c., day 0
  survival rate: 100
[1]; 10 mg/kg s.c., day 1
  survival rate: 100
[1]; 10 mg/kg s.c., day 2
  survival rate: 100
[1]; 10 mg/kg s.c., day 3
  survival rate: 100
[1]; 10 mg/kg s.c., day 4
  survival rate: 100
[1]; 10 mg/kg s.c., day 5
  survival rate: 100
[1]; 10 mg/kg s.c., day 6
  survival rate: 100
[1]; 10 mg/kg s.c., day 7
  survival rate: 100
[1]; 10 mg/kg s.c., day 8
  survival rate: 100
[1]; 10 mg/kg s.c., day 9
  survival rate: 100
[1]; 10 mg/kg s.c., day 10
  survival rate: 100
[1]; 10 mg/kg s.c., day 11
  survival rate: 100
[1]; 10 mg/kg s.c., day 12
  survival rate: 100
[1]; 10 mg/kg s.c., day 13
  survival rate: 100
[1]; 10 mg/kg s.c., day 14
  survival rate: 100
[1]; 10 mg/kg s.c.
  T/C (%): 242%
[2]
  MIC: 0.3 µg/mL (≈ 0.673 µM)
[3]
  MIC: 1 µg/mL (≈ 2.24 µM)

## C[C@@H](N1CCC(c2ccccn2)CC1)[C@](O)(Cn1cncn1)c1ccc(F)cc1F [I-1, (2R,3R)-2-(2,4-difluorophenyl)-3-(4-pyridin-2-ylpiperidin-1-yl)-1-(1,2,4-triazol-1-yl)butan-2-ol]
[1]; 0.1 mg/kg s.c., day 0
  survival rate: 100
[1]; 0.1 mg/kg s.c., day 1
  survival rate: 100
[1]; 0.1 mg/kg s.c., day 2
  survival rate: 100
[1]; 0.1 mg/kg s.c., day 3
  survival rate: 60
[1]; 0.1 mg/kg s.c., day 4
  survival rate: 60
[1]; 0.1 mg/kg s.c., day 5
  survival rate: 60
[1]; 0.1 mg/kg s.c., day 6
  survival rate: 60
[1]; 0.1 mg/kg s.c., day 7
  survival rate: 20
[1]; 0.1 mg/kg s.c., day 8
  survival rate: 20
[1]; 0.1 mg/kg s.c., day 9
  survival rate: 20
[1]; 0.1 mg/kg s.c., day 10
  survival rate: 20
[1]; 0.1 mg/kg s.c., day 11
  survival rate: 20
[1]; 0.1 mg/kg s.c., day 12
  survival rate: 0
[1]; 0.1 mg/kg s.c.
  T/C (%): 103%
[1]; 1 mg/kg s.c., day 0
  survival rate: 100
[1]; 1 mg/kg s.c., day 1
  survival rate: 100
[1]; 1 mg/kg s.c., day 2
  survival rate: 100
[1]; 1 mg/kg s.c., day 3
  survival rate: 100
[1]; 1 mg/kg s.c., day 4
  survival rate: 100
[1]; 1 mg/kg s.c., day 5
  survival rate: 80
[1]; 1 mg/kg s.c., day 6
  survival rate: 80
[1]; 1 mg/kg s.c., day 7
  survival rate: 60
[1]; 1 mg/kg s.c., day 8
  survival rate: 60
[1]; 1 mg/kg s.c., day 9
  survival rate: 60
[1]; 1 mg/kg s.c., day 10
  survival rate: 40
[1]; 1 mg/kg s.c., day 11
  survival rate: 40
[1]; 1 mg/kg s.c., day 12
  survival rate: 40
[1]; 1 mg/kg s.c., day 13
  survival rate: 20
[1]; 1 mg/kg s.c., day 14
  survival rate: 20
[1]; 1 mg/kg s.c.
  T/C (%): 161%
[1]; 10 mg/kg s.c., day 0
  survival rate: 100
[1]; 10 mg/kg s.c., day 1
  survival rate: 100
[1]; 10 mg/kg s.c., day 2
  survival rate: 100
[1]; 10 mg/kg s.c., day 3
  survival rate: 60
[1]; 10 mg/kg s.c., day 4
  survival rate: 60
[1]; 10 mg/kg s.c., day 5
  survival rate: 60
[1]; 10 mg/kg s.c., day 6
  survival rate: 60
[1]; 10 mg/kg s.c., day 7
  survival rate: 40
[1]; 10 mg/kg s.c., day 8
  survival rate: 40
[1]; 10 mg/kg s.c., day 9
  survival rate: 40
[1]; 10 mg/kg s.c., day 10
  survival rate: 40
[1]; 10 mg/kg s.c., day 11
  survival rate: 40
[1]; 10 mg/kg s.c., day 12
  survival rate: 40
[1]; 10 mg/kg s.c., day 13
  survival rate: 20
[1]; 10 mg/kg s.c., day 14
  survival rate: 20
[1]; 10 mg/kg s.c.
  T/C (%): 132%
[2]
  MIC: 0.3 µg/mL (≈ 0.726 µM)
[3]
  MIC: 10 µg/mL (≈ 24.2 µM)
